The test system of the experiment is Aspergillus flavus. It counts as cell-based.

As to `O=C1CNC(=O)CN1` [cyclo (Gly-Gly)], the “aflatoxin production inhibiting activity” value is recorded as “did not exhibit sufficient aflatoxin production inhibiting activity”.

In the case of `C[C@H]1NC(=O)CNC1=O` [cyclo (D-Ala-Gly)], the “aflatoxin production inhibiting activity” value is reported as “did not exhibit sufficient aflatoxin production inhibiting activity”.

As to `CC[C@@H]1NC(=O)CNC1=O` [cyclo (L-Abu(2)-Gly)], the “aflatoxin production inhibiting activity” value is reported as “extremely excellent aflatoxin production inhibiting activity”. The “aflatoxin production inhibiting activity relative to the natural product cyclo (L-Ala-Gly)” value (based on the IC50 (concentration that reduces the amount of aflatoxin B1 to 1/2), 25°C, 4 days) came out at 75 fold.
